Reference: patent US20240308998A1, “PYRROLOPYRIDONE DERIVATIVES USEFUL IN THE TREATMENT OF CANCER” (Tay Therapeutics Limited, priority 2021, published 2024)
Structures can show the parent of a compound that is named as a salt.

Key:
[1] = Intrinsic clearance in rat liver microsomes; format: in vitro ADME; conditions: pH 7.4, NADPH, read-out: Rat Microsomal Stability T½
Procedure: A 50 mM stock solution (in DMSO) was prepared for the compound. From the stock solution, a working solution of 0.5 mM was prepared by diluting the compound in DMSO. This concentration of working solution was prepared considering a final concentration of 1 uM with 0.1% DMSO. The compound (1 uL of working solution) was spiked in PBS with pH 7.4 (22 uL) at a concentration of 1 uM. Subsequently, 110 uL of 10 mM NADPH was added (as a co-factor). The sample was incubated at 37° C. for 15 min. Following this, pre-warmed rat liver microsomes (27.5 uL; final protein conc. 0.5 mg/mL) were added. The samples were then incubated at 37° C. Aliquots of samples were withdrawn at 0, 5, 15, 30, 45 and 60 min. The reaction was stopped by using chilled acetonitrile containing internal standard. The samples were centrifuged and the supernatants analysed by LC-MS/MS. The percent compound remaining at each time point was calculated with respect to that of the 0 min sample. The data were then analysed to calculate half-life. Note that control samples were run without NADPH and blank samples were prepared using DMSO without the test Compound.

BRD4 BD2 = target: T1, BRD4 BD2 (Homo sapiens, UniProt O60885); experiment: NanoBRET bromodomain assay, BRD4 BD2; format: cell-based; conditions: for Fold selectivity BRD4 BD1/BD2: IC50 BD1/IC50 BD2; for IC50: NanoBRET, HEK293 cells transfected with NanoLuc-BRD4-BD2
T1 construct: HEK293 cells were transfected using NanoLuc-BRD4-BD1 or NanoLuc-BRD4-BD2 fusion vectors; host or cells: HEK293
Procedure: (§1) HEK293 cells were transfected using NanoLuc-BRD4-BD1 or NanoLuc-BRD4-BD2 fusion vectors and incubated at 37° C. in an atmosphere of 5% CO2 for 20-24 hours. The transfected cells were then dispensed into 96-well plates using 90 μl cell suspension per well containing 2×10^5 cells/ml in Opti-MEM and 1x final concentration of tracer. 90 μl per well of cell suspension without tracer was also dispensed into at least 3 wells as “No tracer control samples” for background correction. Serially diluted test compounds were prepared at 1000× concentration in DMSO and further diluted to 10× concentration in Opti-MEM. 10 μl per well of the serially diluted 10× test compound was added to the 96-well plates containing cells with 1x tracer. Plates were then incubated at 37° C.+5% C02 incubator for 2 hours. Immediately prior to BRET measurements, a 3x solution consisting of 1:166 dilution of Nano-Glo® Substrate plus a 1:500 dilution of Extracellular NanoLuc Inhibitor in Opti-MEM was prepared and 50 μl per well was added to the cells. Donor emission (450 nm) and acceptor emission (610 nm) were measured using PHERAstar (BMG LabTech). For data analysis, the raw BRET ratio was generated and converted to milliBRET units with background correction using the formula: [(Acceptorsample/Donorsample)−(Acceptorno tracer control/Donorno tracer control)]×1000. The mBU data was plotted as a function of compound concentration and IC50s for BRET assay were determined by nonlinear regression analysis of concentration response curves using the GraphPad Prism software.
Fold Selectivity Calculated (IC50 BD1/IC50 BD2).

BRD4 BD1 = target: T2, BRD4 BD1 (Homo sapiens, UniProt O60885); experiment: NanoBRET bromodomain assay, BRD4 BD1; format: cell-based; conditions: HEK293 cells transfected with NanoLuc-BRD4-BD1
T2 construct: HEK293 cells were transfected using NanoLuc-BRD4-BD1 or NanoLuc-BRD4-BD2 fusion vectors; host or cells: HEK293
Procedure: as §1

| Compound | half-life at 1 uM [1] [min] | Fold selectivity BRD4 BD1/BD2 (BRD4 BD2) | IC50 (BRD4 BD2) [nM] | IC50 (BRD4 BD1) [nM] |
| --- | --- | --- | --- | --- |
| Cc1cccc(C)c1Oc1cn(C)c(=O)cc1-c1cn(C)c(=O)c2[nH]c(-c3cnnn3C)cc12 [Example 33, 4-(5-(2,6-dimethylphenoxy)-1-methyl-2-oxo-1,2-dihydropyridin-4-yl)-6-methyl-2-(1-methyl-1H-1,2,3-triazol-5-yl)-1,6-dihydro-7H-pyrrolo[2,3-c] pyridin-7-one] | > 60 | x (Fold >2 and ≤50) | > 1000 | > 1000 |
| Cc1cccc(C)c1Oc1cn(C)c(=O)cc1-c1cn(C)c(=O)c2[nH]c(-c3ccccc3)cc12 [Example 8, 4-(5-(2,6-dimethylphenoxy)-1-methyl-2-oxo-1,2-dihydropyridin-4-yl)-6-methyl-2-phenyl-1,6-dihydro-7H-pyrrolo[2,3-c] pyridin-7-one] | > 60 | xx (Fold >50 and ≤200) | 50 to 200 | > 1000 |
| Cc1cccc(C)c1Oc1cn(C)c(=O)cc1-c1cn(C)c(=O)c2[nH]c(-c3cn(C(C)C)nc3C)cc12 [Example 6, 4-(5-(2,6-dimethylphenoxy)-1-methyl-2-oxo-1,2-dihydropyridin-4-yl)-2-(1-isopropyl-3-methyl-1H-pyrazol-4-yl)-6-methyl-1,6-dihydro-7H-pyrrolo[2,3-c]pyridin-7-one] | > 60 | xxx (Fold >200) | ≤ 50 | 500 to 1000 |
| Cc1cccc(C)c1Oc1cn(C)c(=O)cc1-c1cn(C)c(=O)c2[nH]c(-c3ccn(C)c3)cc12 [Example 13, 4-(5-(2,6-dimethylphenoxy)-1-methyl-2-oxo-1,2-dihydropyridin-4-yl)-6-methyl-2-(1-methyl-1H-pyrrol-3-yl)-1,6-dihydro-7H-pyrrolo[2,3-c] pyridin-7-one] | > 60 | xxx (Fold >200) | ≤ 50 | > 1000 |
| Cc1ccccc1-c1cc2c(-c3cc(=O)n(C)cc3Oc3c(C)cccc3C)cn(C)c(=O)c2[nH]1 [Example 15, 4-(5-(2,6-dimethylphenoxy)-1-methyl-2-oxo-1,2-dihydropyridin-4-yl)-6-methyl-2-(o-tolyl)-1,6-dihydro-7H-pyrrolo[2,3-c] pyridin-7-one] | 23 | x (Fold >2 and ≤50) | 200 to 1000 | > 1000 |
| Cc1cccc(C)c1Oc1cn(C)c(=O)cc1-c1cn(C)c(=O)c2[nH]c(-c3cncnc3)cc12 [Example 22, 4-(5-(2,6-dimethylphenoxy)-1-methyl-2-oxo-1,2-dihydropyridin-4-yl)-6-methyl-2-(pyrimidin-5-yl)-1,6-dihydro-7H-pyrrolo[2,3-c] pyridin-7-one] | > 60 | xx (Fold >50 and ≤200) | 50 to 200 | > 1000 |
| Cc1cccc(C)c1Oc1cn(C)c(=O)cc1-c1cn(C)c(=O)c2[nH]c(-c3cccnc3)cc12 [Example 9, 4-(5-(2,6-dimethylphenoxy)-1-methyl-2-oxo-1,2-dihydropyridin-4-yl)-6-methyl-2-(pyridin-3-yi)-1,6-dihydro-7H-pyrrolo[2,3-c] pyridin-7-one.TFA] | > 60 | x (Fold >2 and ≤50) | 200 to 1000 | > 1000 |
| Cc1ccc(C(F)(F)F)cc1-c1cc2c(-c3cc(=O)n(C)cc3Oc3c(C)cccc3C)cn(C)c(=O)c2[nH]1 [Example 21, 4-(5-(2,6-dimethylphenoxy)-1-methyl-2-oxo-1,2-dihydropyridin-4-yl)-6-methyl-2-(2-methyl-5-(trifluoromethyl)phenyl)-1,6-dihydro-7H-pyrrolo[2,3-c] pyridin-7-one] | > 60 | — (Fold ≥0 and ≤2) | > 1000 | > 1000 |
| Cc1ccc(Cl)cc1-c1cc2c(-c3cc(=O)n(C)cc3Oc3c(C)cccc3C)cn(C)c(=O)c2[nH]1 [Example 20, 2-(5-chloro-2-methylphenyl)-4-(5-(2,6-dimethylphenoxy)-1-methyl-2-oxo-1,2-dihydropyridin-4-yl)-6-methyl-1,6-dihydro-7H-pyrrolo[2,3-c] pyridin-7-one] | > 60 | x (Fold >2 and ≤50) | 200 to 1000 | > 1000 |
| Cc1ccc(C)c(-c2cc3c(-c4cc(=O)n(C)cc4Oc4c(C)cccc4C)cn(C)c(=O)c3[nH]2)c1 [Example 19, 4-(5-(2,6-dimethylphenoxy)-1-methyl-2-oxo-1,2-dihydropyridin-4-yl)-2-(2,5-dimethylphenyl)-6-methyl-1,6-dihydro-7H-pyrrolo[2,3-c] pyridin-7-one] | > 60 | x (Fold >2 and ≤50) | 200 to 1000 | > 1000 |
| Cc1ccc(F)cc1-c1cc2c(-c3cc(=O)n(C)cc3Oc3c(C)cccc3C)cn(C)c(=O)c2[nH]1 [Example 18, 4-(5-(2,6-dimethylphenoxy)-1-methyl-2-oxo-1,2-dihydropyridin-4-yl)-2-(5-fluoro-2-methylphenyl)-6-methyl-1,6-dihydro-7H-pyrrolo[2,3-c] pyridin-7-one] | > 60 | xx (Fold >50 and ≤200) | 50 to 200 | > 1000 |

Other lines, results leading:

| half-life at 1 uM [1] [min] | Fold selectivity BRD4 BD1/BD2 (BRD4 BD2) | IC50 (BRD4 BD2) [nM] | IC50 (BRD4 BD1) [nM] | Compound |
| --- | --- | --- | --- | --- |
| > 60 | x (Fold >2 and ≤50) | 200 to 1000 | > 1000 | Cc1ccc(-c2cc3c(-c4cc(=O)n(C)cc4Oc4c(C)cccc4C)cn(C)c(=O)c3[nH]2)cc1 [Example 23, 4-(5-(2,6-dimethylphenoxy)-1-methyl-2-oxo-1,2-dihydropyridin-4-yl)-6-methyl-2-(p-tolyl)-1,6-dihydro-7H-pyrrolo[2,3-c] pyridin-7-one] |
| 44 | xxx (Fold >200) | ≤ 50 | > 1000 | Cc1cccc(C)c1Oc1cn(C)c(=O)cc1-c1cn(C)c(=O)c2[nH]c(-c3ccncc3)cc12 [Example 10, 4-(5-(2,6-dimethylphenoxy)-1-methyl-2-oxo-1,2-dihydropyridin-4-yl)-6-methyl-2-(pyridin-4-yl)-1,6-dihydro-7H-pyrrolo[2,3-c] pyridin-7-one] |
| > 60 | xx (Fold >50 and ≤200) | ≤ 50 | > 1000 | Cc1cccc(C)c1Oc1cn(C)c(=O)cc1-c1cn(C)c(=O)c2[nH]c(-c3ccc(S(C)(=O)=O)cc3)cc12 [Example 26, 4-(5-(2,6-dimethylphenoxy)-1-methyl-2-oxo-1,2-dihydropyridin-4-yl)-6-methyl-2-(4-(methylsulfonyl)phenyl)-1,6-dihydro-7H-pyrrolo[2,3-c] pyridin-7-one] |
| > 60 | xx (Fold >50 and ≤200) | 50 to 200 | > 1000 | Cc1cccc(C)c1Oc1cn(C)c(=O)cc1-c1cn(C)c(=O)c2[nH]c(-c3ccc(C(F)(F)F)cc3)cc12 [Example 28, 4-(5-(2,6-dimethylphenoxy)-1-methyl-2-oxo-1,2-dihydropyridin-4-yl)-6-methyl-2-(4-(trifluoromethyl)phenyl)-1,6-dihydro-7H-pyrrolo[2,3-c] pyridin-7-one] |
| > 60 | xxx (Fold >200) | ≤ 50 | > 1000 | Cc1cccc(C)c1Oc1cn(C)c(=O)cc1-c1cn(C)c(=O)c2[nH]c(-c3ccc(C(N)=O)cc3)cc12 [Example 29, 4-(4-(5-(2,6-dimethylphenoxy)-1-methyl-2-oxo-1,2-dihydropyridin-4-yl)-6-methyl-7-oxo-6,7-dihydro-1H-pyrrolo[2,3-c]pyridin-2-yl) benzamide] |
| > 60 | xxx (Fold >200) | ≤ 50 | > 1000 | Cc1cccc(C)c1Oc1cn(C)c(=O)cc1-c1cn(C)c(=O)c2[nH]c(-c3ccc(F)cc3)cc12 [Example 25, 4-(5-(2,6-dimethylphenoxy)-1-methyl-2-oxo-1,2-dihydropyridin-4-yl)-2-(4-fluorophenyl)-6-methyl-1,6-dihydro-7H-pyrrolo[2,3-c] pyridin-7-one] |
